This note sets out measurements from ChEMBL document CHEMBL3734743, “Potent complement C3a receptor agonists derived from oxazole amino acids: Structure-activity relationships” (Bioorg Med Chem Lett, 2015).

Activity calls are given as the source filed them. The calls are words filed in the database; no cut-off is given here.

Assay [1] has as its target T1, C5a anaphylatoxin chemotactic receptor 1 (Homo sapiens) (UniProt P21730).
T1 sequence (whole entry): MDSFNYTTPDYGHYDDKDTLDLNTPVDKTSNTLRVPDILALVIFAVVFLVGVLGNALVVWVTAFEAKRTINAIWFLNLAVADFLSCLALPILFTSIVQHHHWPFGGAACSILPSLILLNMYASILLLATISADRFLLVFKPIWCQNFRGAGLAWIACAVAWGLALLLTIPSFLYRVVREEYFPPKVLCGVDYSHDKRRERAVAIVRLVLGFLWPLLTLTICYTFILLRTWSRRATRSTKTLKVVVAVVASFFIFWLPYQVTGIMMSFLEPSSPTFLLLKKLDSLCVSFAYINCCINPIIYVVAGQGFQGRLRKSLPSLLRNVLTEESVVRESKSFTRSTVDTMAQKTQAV
Kind of assay: Displacement of [125I]-C5a from C5aR in human MDM cells at 20 uM after 60 mins by microbeta scintillation counting analysis. Format: cell-based.

Assay [2] has as its target T2, C3a anaphylatoxin chemotactic receptor (Homo sapiens, UniProt Q16581).
T2 sequence (Q16581 whole entry): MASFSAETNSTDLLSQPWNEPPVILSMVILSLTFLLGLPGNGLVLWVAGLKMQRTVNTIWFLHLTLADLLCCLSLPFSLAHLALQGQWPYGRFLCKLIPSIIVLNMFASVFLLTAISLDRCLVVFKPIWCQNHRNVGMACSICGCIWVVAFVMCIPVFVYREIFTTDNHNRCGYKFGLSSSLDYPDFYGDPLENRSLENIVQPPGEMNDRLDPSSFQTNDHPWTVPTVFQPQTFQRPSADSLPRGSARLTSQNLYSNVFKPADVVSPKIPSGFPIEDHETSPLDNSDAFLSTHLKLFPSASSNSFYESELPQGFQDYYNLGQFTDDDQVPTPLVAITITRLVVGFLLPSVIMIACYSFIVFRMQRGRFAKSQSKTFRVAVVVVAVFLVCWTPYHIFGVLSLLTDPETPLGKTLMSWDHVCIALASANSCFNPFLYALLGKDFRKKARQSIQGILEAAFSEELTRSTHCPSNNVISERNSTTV
Kind of assay: Agonist activity at C3aR in human MDM cells assessed as inhibition of C3a-induced Ca2+ response measured for 60 secs by fluorescence assay. It is filed as functional, cell-based.

Assay [3] deals with T3, C3a anaphylatoxin chemotactic receptor (Homo sapiens) (UniProt Q16581).
T3 sequence (whole entry): T2 sequence (Q16581 whole entry)
As to the kind of experiment: Agonist activity at C3aR in human MDM cells assessed as intracellular calcium efflux at 1 uM measured for 60 secs by fluorescence based receptor desensitization assay. Format: functional, cell-based.

Assay [4] deals with T2, C3a anaphylatoxin chemotactic receptor. As to the kind of experiment: Displacement of [125I]-C3a from C3aR in human MDM cells after 60 mins by microbeta scintillation counting analysis. It is filed as cell-based.
Assay [5] has as its target T3, C3a anaphylatoxin chemotactic receptor (Homo sapiens). Kind of assay: Displacement of [125I]-C3a from C3aR in human MDM cells at 10 uM after 60 mins by microbeta scintillation counting analysis. It is filed as cell-based.
Assay [6] has the same target. As to the kind of experiment: Agonist activity at C3aR in human MDM cells assessed as induction of intracellular Ca2+ release measured for 60 secs in presence of C3a antagonist SB290157 by fluorescence assay. It is filed as functional, cell-based.

As to `CC[C@H](C)[C@H](NC(=O)c1ccc2ccccc2n1)c1nc(C(=O)N[C@@H](CCCNC(=N)N)C(=O)O)co1`, the inhibition entry in assay [1] was “inactive”. For the same compound, the concentration giving a half-maximal response (EC50) in assay [2] amounted to 41 nM. In assay [3], the result was inactive. The half-maximal inhibitory concentration (IC50) in assay [4] amounted to 123 nM.

As to `CC(C)C[C@H](NC(=O)OC(C)(C)C)c1nc(C(=O)N[C@@H](CCCNC(=N)N)C(=O)O)co1`, the inhibition result in assay [1] is “inactive”. Moreover, in assay [2], the EC50 was determined as 19 nM. In assay [3], the outcome was inactive. In assay [4], this compound displayed a half-maximal inhibitory concentration (IC50) of 20 nM.

Take `CC[C@H](C)[C@H](NC(=O)c1cncc(Br)c1)c1nc(C(=O)NCCCCNC(=N)N)c(C)o1`: the inhibition result in assay [5] and in assay [1] was “inactive” each time.

For the compound `CC[C@H](C)[C@H](NC(=O)c1ccccc1Oc1ccccc1)c1nc(C(=O)N[C@@H](CCCNC(=N)N)C(=O)O)co1`, the inhibition result in assay [1] was “inactive”. In addition, the result in assay [3] was Active. The compound also showed a 50% inhibitory concentration (IC50) in assay [4] of 55 nM.

On to `CC[C@H](C)[C@H](NC(=O)CCC(=O)c1ccc(-c2ccccc2)cc1)c1nc(C(=O)N[C@@H](CCCNC(=N)N)C(=O)O)co1`, for which the inhibition result in assay [1] is “inactive”. In addition, the outcome in assay [3] was inactive. Besides, the half-maximal inhibitory concentration (IC50) in assay [4] is 150 nM.

As for `Cc1oc([C@H](CC(C)C)NC(=O)OC(C)(C)C)nc1C(=O)N[C@@H](CCCNC(=N)N)C(=O)O`, in assay [1], the inhibition entry was “inactive”. Besides, in assay [2], the concentration for a half-maximal effect (EC50) is 45 nM. Moreover, the result in assay [3] and in assay [6] was inactive. The compound also returned a half-maximal inhibitory concentration (IC50) in assay [4] of 14 nM.

As for `CC(C)C[C@H](NC(=O)Cc1ccc(F)cc1)c1nc(C(=O)N[C@@H](CCCNC(=N)N)C(=O)O)co1`, the inhibition entry in assay [1] is “inactive”. Further, the outcome in assay [3] was inactive. The same compound returned an IC50 in assay [4] of 102 nM.

For `CC(C)C[C@H](NC(=O)OC(C)(C)C)c1nc(C(=O)N[C@@H](CCCNC(N)=O)C(=O)O)co1`, the inhibition entry in assay [5] and in assay [1] was “inactive” each time.

Consider `CC[C@H](C)[C@H](NC(=O)c1cncc(Br)c1)c1nc(C(=O)N[C@@H](CCCNC(=N)N)C(=O)O)co1`, for which the inhibition entry in assay [1] was “inactive”. In assay [3], the outcome was inactive. This compound also yielded an IC50 in assay [4] of 5 nM.

Turning to `CC(C)C[C@H](NC(=O)c1c[nH]c2ccccc12)c1nc(C(=O)N[C@@H](CCCNC(=N)N)C(=O)O)co1`, the inhibition entry in assay [1] was “inactive”. The result in assay [3] and in assay [6] was inactive.

`CC[C@H](C)[C@H](NC(=O)C1(C(C)C)C=CCC=C1)c1nc(C(=O)N[C@@H](CCCNC(=N)N)C(=O)O)co1`: the inhibition result in assay [1] was “inactive”. The concentration giving a half-maximal response (EC50) in assay [2] was 740 nM. The IC50 in assay [4] worked out at 754 nM.
